Data set [1] has as its system acetylcholine release, human neuroblastoma cell line differentiated to cholinergic neuronal phenotype. The data set can be described thus: Inhibition of KCl-induced acetylcholine release in a neuroblastoma cell line (Amplex Red). In kind it is cell-based. Particulars: 50 mM KCl. How it is done: To determine the compound of the invention effects on acetylcholine release, a human neuroblastoma cell line (50.000 cells/well) was used. Cells were differentiated to cholinergic neuronal phenotype for 4 days. Then, cells were pre-incubated for 60 minutes with the compounds (between 0.1 and 100 μM) as acetyl- or palmitoyl-form and conjugated with trifluoroacetate (TFA) or acetate salt. Afterwards, acetylcholine release was induced by membrane depolarization evoked by 15 minutes incubation with 50 mM KCl. Acetylcholine level in supernatants was quantified by using Amplex® Red Acetylcholine Assay Kit (Thermofisher) following manufacturer's instructions. […] Fluorescence (Ex 530 nm/Em 590 nm) was measured in FluorStar equipment. Acetylcholine content was normalized to the total protein content using BCA assay (Pierce) following manufacturer's instructions. Fluorescence measurements were normalized to the maximum signal detected with KCl stimulation in vehicle treated cells. Vesicle exocytosis disruption by the compounds of the invention lead to a decrease of acetylcholine release (Table E).

Data set [2] relates to pilocarpine-induced sweating, C57BL6/Rcc male mice. Briefly: Antiperspirant effect, chronic administration, pilocarpine-induced sweating mouse model. In kind it is in vivo. Conditions: during 4 weeks treatment, 100 μg/paw. As for the experimental part: This example evaluated chronic effects of peptide of invention SEQ ID NO: 1 pamitoylated form, in an in vivo sweating model. This model was established using pilocarpine, a non-selective agonist of muscarinic receptors, in 11-weeks old C57BL6/Rcc male mice. Test compound was locally administered three times per week for 4 weeks (Treatment). Sweat was induced by intraplantar (i.pl) injection of pilocarpine (3 μg/paw) in the right hind paw (Sweating) once on weeks 1, 2 and 4 according to table H.
Test compound was injected i.pl. on the right hind paw (1, 10 and 100 μg), and vehicle was saline solution.
Sweating was monitored through amylase activity detection on skin surface using iodine/starch reaction. Dark sweating drops were quantified after 5 minutes induction counting number of drops per paw in each condition. Sample n=5-6 individuals per group. Data are expressed as mean #standard error of the mean (SEM). Raw data was normalized as percentage respect to non-injected stimulated individuals (control, 100%). Statistical analysis was one-way ANOVA followed by Dunnett's post-hoc multiple comparison test comparing each condition with the corresponding control group, ****p<0.0001 ***p<0.001 **p<0.01, *p<0.05

Data set [3] concerns TRPV1-mediated excitability of sensory neurons (neonatal rat dorsal root ganglia). The data set can be described thus: In vitro functional assay for neuronal sensitization (microelectrode array, capsaicin pulses). In kind it is cell-based, Wistar rats. Conditions: for % Sensitization inhibition: incubated 1 hour, 100 - ratio P3/P1. As for the experimental part:
Isolated neonatal rat dorsal root ganglia from Wistar rats (3-5 days-old) were seeded microelectrode array chips in DMEM Glutamax, 10% FBS, 1% P/S supplemented with murine NGF. All experiments were performed after 48 h cell seeding.
Sensory neurons were sensitized by acute exposure to pro-inflammatory cocktail with bradykinin, histamine and ATP. TRPV1-mediated excitability was analyzed as stinging, burning and itching sensations are mainly driven by TRPV1. Repetitive application of TRPV1-agonist capsaicin (15 s-application 500 nM) allowed first activation (P1) followed by desensitization (second application). Desensitized cultures were sensitized with the cocktail to recover excitability, using external solution between the second (P2) and the third (P3) capsaicin pulse (8 min). To confirm cell viability 40 mM KCl was applied at the end. Test compound was incubated 1 hour before monitoring at 0.1, 1 and 10 µM. Test compound is the peptide having the following sequence (SEQ ID NO: 1): Palm-HYWRELQYR-NH2
Sensitization was calculated as ratio between P3 and P1 capsaicin pulse (ratio P3/P1), representing sensitized response induced by the pro-inflammatory cocktail. Inhibition percentage was calculated as 100-Sensitization. Data are expressed as mean±standard error of the mean (SEM), Statistical analysis was one-way ANOVA followed by Dunnett's post-hoc multiple comparison test comparing each condition with the corresponding sensitization control group, ****p<0.0001 ***p<0.001 **p<0.01, *p<0.05

For data set [4], the system named is pilocarpine-induced sweating, C57BL6/Rcc male mice. Particulars: acute, at 10, 30 and 100 μg.
Method: Test compound was injected intraplantar (i.pl.) on the right hind paw (10, 30 and 100 μg) 30 min before sweating stimulation. Vehicle was saline solution.
Sweating was monitored through amylase activity detection on skin surface using iodine/starch reaction. Dark sweating drops were quantified after 5 minutes induction counting number of drops per paw in each condition. Sample n=5-6 individuals per group. Data are expressed as mean±standard error of the mean (SEM). Raw data was normalized as percentage respect to non-injected stimulated individuals (Control, 100%) and saline-injected non-stimulated individuals (Vehicle, 0%). Statistical analysis was one-way ANOVA followed by Dunnett's post-hoc multiple comparison test comparing each condition with the corresponding control group, ****p<0.0001 ***p<0.001 **p<0.01, *p<0.05
The subject of data set [5] is human dermal fibroblasts (HDFa). The data set can be described thus: MTT cell viability assay on dermal fibroblasts. Type of data set: cell-based. Conditions: for % inhibition cell viability: HDFa, 24 hours; for effect on cell viability (in words): dermal fibroblast, up to 200 μM. How it is done:
(§1) This example evaluated effects of the peptides of invention on human epidermal keratinocytes and dermal fibroblasts. Cell viability was determined with the 3-(4,5-dimethyl-2-thiazolyl)-2,5-diphenyl-2H-tetrazolium bromide (MTT) assay. The MTT assay is a colorimetric reaction based on the capacity of the mitochondrial dehydrogenase enzyme to break and transform the tetrazolium rings of MTT. Epidermal keratinocytes (HEKa) were seeded in a previously coated 96 well-plate at 50-60% confluence in 100 μL of supplemented corresponding medium. Dermal fibroblasts (HDFa) were seeded in a 96 well-plate at 70% confluence in 100 μL supplemented medium. For both cell lines, 24 hours after seeding, medium was replaced by fresh supplemented medium containing peptides dissolved at concentration range between 0.1 and 200 μM. All test substances were incubated for 24 hours at 37° C. and 5% CO2. Afterwards, medium was replaced by 0.5 mg/ml of MTT solution for 4 hours in complete medium. Then, medium was carefully removed and 150 μL/well of DMSO were added to solubilize formazan crystals. Plate was protected from light, shaken for 60 seconds and optical density was measured at 570 nm with a reference filter of 620 nm. Table F details effects of peptides of invention on keratinocytes and fibroblasts cell viability expressed as percentage of inhibition.

Data set [6] deals with CGRP induced-release on peptidergic sensory neurons (dorsal root ganglia). The data set can be described thus: Inhibition of capsaicin-induced CGRP release on cultured sensory neurons (CGRP EIA). In kind it is cell-based. Particulars: 1 hour, 1 μM capsaicin 10 min. As for the experimental part:
The induction of the release of calcitonin-gene related peptide (CGRP) with capsaicin enables direct measurement of neuronal exocytosis (Meng J. et al., J. Cell. Sci. (2007) 15; 120(Pt 16):2864-74, and Meng J. et al., Mol. Neurobiol. (2014); 50(2):574-88).
The tested peptides were evaluated by measuring their capability of inhibiting CGRP induced-release on peptidergic sensory neurons. Dorsal root ganglia were seeded (50.000 cells/well) in a 96-well plate previously coated with poly-L-lysine and laminin. After 48 hours seeding, cells were incubated with Hank's Balanced salt solution containing peptides of invention at 20, 50 or 100 μM for 1 hour. Next, cells were stimulated for 10 min with 1 μM capsaicin at 37° C. Then, CGRP content was determined in supernatants using colorimetric based CGRP EIA (Spi-Bio Inc) following manufacturer's instructions. Absorbance measurements (405 nm) were standardized with regard to the maximum signal detected with capsaicin stimulation in vehicle treated cells. Inhibition values of CGRP release were calculated as percentages by considering maximum signal to capsaicin-induced release and minimum as non-stimulated cells. Table D details inhibition values of […] obtained for the peptides of invention.

Data set [7] concerns human epidermal keratinocytes (HEKa). Briefly: MTT cell viability assay on epidermal keratinocytes. In kind it is cell-based. Particulars: for % inhibition cell viability: HEKa, 24 hours; for effect on cell viability (in words): human epidermal keratinocytes, up to 200 μM. How it is done: as §1
A general note: Tetrazolium assays rely on reduction of a dye to a coloured formazan, in cell work by metabolically active cells.

Read-outs that look alike come from different tables or passages of the source. Residues, ends and D or L forms follow the SMILES beside them. *: point of attachment. Palmitoyl = CCCCCCCCCCCCCCCC(=O)*

Take `CCCCCCCCCCCCCCCC(=O)N[C@@H](Cc1c[nH]cn1)C(=O)N[C@@H](Cc1ccc(O)cc1)C(=O)N[C@@H](Cc1c[nH]c2ccccc12)C(=O)N[C@@H](CCCNC(=N)N)C(=O)N[C@@H](CCC(=O)O)C(=O)N[C@@H](CC(C)C)C(=O)N[C@@H](CCC(N)=O)C(=O)N[C@@H](Cc1ccc(O)cc1)C(=O)N[C@@H](CCCNC(=N)N)C(N)=O` [SEQ ID NO: 1 palmitoyl, Palm-HYWRELQYR-NH2] (Palmitoyl-HYWRELQYR-NH2): the “% Ach release inhibition” value was 42.9% in data set [1] (Acetate salt, 0.1 μM); 81.3% in data set [1] (Acetate salt, 1 μM); 87.5% in data set [1] (Acetate salt, 10 μM); 7.9% in data set [1] (TFA salt, 5 μM); 49.4% in data set [1] (TFA salt, 10 μM); 75.9% in data set [1] (TFA salt, 50 μM). The figures for the “effect on sweating (in words)” value in data set [2] and in data set [4] were “significant sweating inhibition” and “significantly reduced sweating”, respectively. Besides, the figures for the “% Sensitization inhibition” value in data set [3] (0.1 μM), in data set [3] (1 μM) and in data set [3] (10 μM) were 69.7%, 51.2% and 59.7%, respectively. The “effect on sensitization process (in words)” value in data set [3] (at the three concentration (0.1, 1 and 10 µM)) is “significantly inhibited sensitization process with similar efficacy”.

As to “Ac-MQVWLRMWIDYRAT-NH2 [SEQ ID NO: 2 acetyl, MQVWLRMWIDYRAT]”, the “% Ach release inhibition” value in data set [1] (Acetate salt, 1 μM) stood at 41.0%; in data set [1] (Acetate salt, 10 μM), 55.8%; in data set [1] (TFA salt, 5 μM), 76.2%; in data set [1] (TFA salt, 10 μM), 78.8%; in data set [1] (TFA salt, 20 μM), 10.9%. Also, the “% inhibition cell viability” value is recorded as 10.1% in data set [5] (1 μM); 12.3% in data set [5] (5 μM); 8.5% in data set [5] (10 μM); 1.4% in data set [5] (50 μM); 7.8% in data set [5] (100 μM); 24.6% in data set [5] (200 μM). Further, the “% inhibition cell viability” value in data set [7] (1 μM) is reported as −1.2%; in data set [7] (5 μM), −1.8%; in data set [7] (10 μM) it was −0.5%; in data set [7] (50 μM) it was −4.6%; in data set [7] (100 μM) it was −0.7%; in data set [7] (200 μM), 1.2%. The “effect on cell viability (in words)” value in data set [5] and in data set [7] was “did not modify cell viability” throughout. Besides, the “% CGRP release inhibition” value in data set [6] (peptide 20 μM) amounted to 49.3%; in data set [6] (peptide 100 μM), 55.3%.

As for “Ac-HYWRELQYR-NH2 [SEQ ID NO: 1 acetyl, HYWRELQYR]”, the “% Ach release inhibition” value worked out at 27.9% in data set [1] (Acetate salt, 1 μM); 55.9% in data set [1] (Acetate salt, 10 μM); 87.9% in data set [1] (TFA salt, 10 μM); 33.6% in data set [1] (TFA salt, 50 μM); 65.9% in data set [1] (TFA salt, 100 μM). Also, the “% inhibition cell viability” value is listed as 0.2% in data set [5] (1 μM); 9.7% in data set [5] (5 μM); 33% in data set [5] (10 μM); 3.9% in data set [5] (50 μM); 6.8% in data set [5] (100 μM); 2.9% in data set [5] (200 μM). Moreover, the “% inhibition cell viability” value in data set [7] (1 μM) is −1.4%; in data set [7] (5 μM), 8.8%; in data set [7] (10 μM), 1.7%; in data set [7] (50 μM), 7.4%; in data set [7] (100 μM), 6.2%; in data set [7] (200 μM), 9.5%. Also, the “effect on cell viability (in words)” value in data set [5] and in data set [7] was “did not modify cell viability” throughout. Besides, the “% CGRP release inhibition” value in data set [6] (peptide 20 μM) is reported as 10.1%; in data set [6] (peptide 100 μM), 39.1%.

As for “Ac-LRVQMVNMFL-NH2 [SEQ ID NO: 4 acetyl, LRVQMVNMFL]”, the “% Ach release inhibition” value in data set [1] (Acetate salt, 0.1 μM) is “around 40%”; in data set [1] (TFA salt, 10 μM), 84.3%; in data set [1] (TFA salt, 50 μM) it was 58.9%; in data set [1] (TFA salt, 100 μM), 6.8%. Further, the “% inhibition cell viability” value in data set [5] (1 μM) stood at 14.5%; in data set [5] (5 μM), 28.4%; in data set [5] (10 μM) it was 37.1%; in data set [5] (50 μM), 40.6%; in data set [5] (100 μM) it was 41.5%; in data set [5] (200 μM), 22.9%. Also, the “% inhibition cell viability” value in data set [7] (1 μM) is 13.6%; in data set [7] (5 μM), 2.6%; in data set [7] (10 μM) it was 6.0%; in data set [7] (50 μM), 19.5%; in data set [7] (100 μM) it was 31.6%; in data set [7] (200 μM), 41.1%. Further, the “% CGRP release inhibition” value was determined as 14.2% in data set [6] (peptide 20 μM) and 77.4% in data set [6] (peptide 100 μM). In addition, the “effect on keratinocyte viability (in words)” value in data set [7] (assessed below 50 μM) is on record as “did not modify keratinocyte viability”.

For the origin of these results see US12377035B2, “Peptides for inhibiting cholinergic calcitonin gene-related peptide (CGRP) and acetylcholine (ACH) release or inhibiting sensitization-mediated by TRPV1-mediated excitability in sensory neurons and methods of use thereof” (AZIENDE CHIMICHE RIUNITE ANGELINI FRANCESCO—A.C.R.A.F. …, priority 2018, dated 2025).
